Values of other authors in US20180000827A1 (SYNTHON B.V., priority 2014, published 2018).

- solubility dependence on pH: highly dependent upon pH
SMILES: COc1cc2ncnc(Nc3ccc(F)c(Cl)c3)c2cc1OCCCN1CCOCC1 [Gefitinib, 4-(3-chloro-4-fluorophenylamino)-7-methoxy-6-[3-(4-morpholinyl)propoxy] quinazoline]
